Test results: US9603845B2, “Prophylactic agent and/or therapeutic agent for stress urinary incontinence” (priority 2012, dated 2017)
Marks after values point to notes of the source that are not given here.

How the values were obtained:
female SD rats = assay: Leak point pressure (LPP) of a rat: intravesical pressure when urinary leakage occurs; format: in vivo; settings: 3 mg/kg intravenous, 5 minutes after administration; for Leak point pressure (LPP): urethane-anesthetized, spinal cord-transected female SD rats, average ± standard error, physiological saline 24.6±0.6
[1] = tested on: stress urinary incontinence model rats; settings: rat, in vivo

Q: CCCOC(C(=O)OC1CCN(C)CC1)(c1ccccc1)c1ccccc1 [propiverine, α,α-diphenyl-α-n-propoxy acetic acid 1-methyl-4-piperidyl ester, reference compound] was tested. Which “LPP compared with the physiological saline group (in words)” value (female SD rats) did it give?
A: The value was “no significant difference”.

Q: And the “Leak point pressure (LPP)” value (female SD rats)?
A: Its value is 24.9±1.9 cmH2O.

Q: CCCOC(C(=O)OC1CCNCC1)(c1ccccc1)c1ccccc1 [the compound of the present invention, 4-piperidyl diphenylpropoxyacetate] was tested. Which “LPP compared with the physiological saline group (in words)” value (female SD rats) did it give?
A: Its value is “significantly higher”.

Q: What about the “Leak point pressure (LPP)” value (female SD rats) of the same compound?
A: The value was 31.1±2.3 cmH2O.

Q: And the “Frequency of urinary incontinence, 30 minutes after administration” value [1]?
A: The value was 4.

Q: What about the “Frequency of urinary incontinence, 2 hours after administration” value [1] of the same compound?
A: Its value is 3*.

Q: What about the “Number of rats that express urinary incontinence due to the electrical stimulus (in words)” value [1] of the same compound?
A: Its value is “significantly decreased”.

Q: What about the “Frequency of urinary incontinence, before administration” value ([1]; po) of the same compound?
A: The value was 8.
